Test results from PubChem BioAssay AID651799 (The Scripps Research Institute Molecular Screening Center, 2012).
Activity calls are given as the source filed them. No rule for the calls is given here.

Biological target: Nuclear receptor coactivator 2 (Homo sapiens) (UniProt Q15596)
Assay: SRC2 (NCOA2) coactivator inhibitors, late-stage follow-up, selectivity assay for SRC1 inhibitor project, cell-based, luciferase reporter, luminescence (AID 651799)

Sequence of Nuclear receptor coactivator 2 (Homo sapiens) (Q15596 whole entry, looked up): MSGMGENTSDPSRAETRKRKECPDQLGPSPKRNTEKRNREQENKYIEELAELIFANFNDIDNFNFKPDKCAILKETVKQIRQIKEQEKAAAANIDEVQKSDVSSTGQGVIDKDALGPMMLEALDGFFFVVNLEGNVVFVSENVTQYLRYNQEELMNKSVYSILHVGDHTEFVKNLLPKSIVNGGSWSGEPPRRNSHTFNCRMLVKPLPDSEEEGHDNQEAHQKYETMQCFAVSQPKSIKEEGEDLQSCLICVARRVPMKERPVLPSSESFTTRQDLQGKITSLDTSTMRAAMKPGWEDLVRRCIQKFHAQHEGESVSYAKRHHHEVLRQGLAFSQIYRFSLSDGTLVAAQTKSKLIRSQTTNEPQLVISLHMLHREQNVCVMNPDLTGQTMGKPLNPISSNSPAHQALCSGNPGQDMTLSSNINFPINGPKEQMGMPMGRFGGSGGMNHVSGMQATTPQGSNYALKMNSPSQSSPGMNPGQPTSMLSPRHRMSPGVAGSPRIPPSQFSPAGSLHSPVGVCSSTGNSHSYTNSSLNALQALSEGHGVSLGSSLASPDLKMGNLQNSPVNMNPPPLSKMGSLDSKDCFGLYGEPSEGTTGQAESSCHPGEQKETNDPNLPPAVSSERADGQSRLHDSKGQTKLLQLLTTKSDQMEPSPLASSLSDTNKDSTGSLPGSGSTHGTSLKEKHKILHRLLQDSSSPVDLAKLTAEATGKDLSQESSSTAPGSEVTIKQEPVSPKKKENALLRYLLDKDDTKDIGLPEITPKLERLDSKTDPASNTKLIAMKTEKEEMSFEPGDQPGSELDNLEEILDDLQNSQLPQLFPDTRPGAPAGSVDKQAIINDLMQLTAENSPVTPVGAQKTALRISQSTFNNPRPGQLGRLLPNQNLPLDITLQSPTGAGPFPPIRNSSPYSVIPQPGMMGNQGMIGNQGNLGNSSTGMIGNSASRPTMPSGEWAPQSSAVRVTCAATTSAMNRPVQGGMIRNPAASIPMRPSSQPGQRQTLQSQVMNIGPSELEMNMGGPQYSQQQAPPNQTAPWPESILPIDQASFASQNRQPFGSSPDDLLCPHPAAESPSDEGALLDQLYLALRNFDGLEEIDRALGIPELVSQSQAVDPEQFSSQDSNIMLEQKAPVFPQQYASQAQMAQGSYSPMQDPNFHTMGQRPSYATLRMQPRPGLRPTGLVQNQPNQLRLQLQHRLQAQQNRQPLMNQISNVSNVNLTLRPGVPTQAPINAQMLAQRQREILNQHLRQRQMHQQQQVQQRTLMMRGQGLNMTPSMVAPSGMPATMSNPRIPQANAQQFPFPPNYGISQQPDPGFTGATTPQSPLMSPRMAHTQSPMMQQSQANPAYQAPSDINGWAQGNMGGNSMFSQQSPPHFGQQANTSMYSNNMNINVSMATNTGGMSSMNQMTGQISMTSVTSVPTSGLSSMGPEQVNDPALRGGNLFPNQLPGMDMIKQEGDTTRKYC

IC50	Structure (SMILES)
inactive	COc1ccc(NC(=O)CN(C)C(=O)C2(c3ccccc3)CCCC2)cc1
inactive	COc1ccc(Nc2ncnc3ccc(Br)cc23)c(OC)c1
